Test results published in US9085557B2, “Quinolylpiperazino substituted thiolactone compounds and process for the preparation thereof” (Council of Scientific and Industrial Research, priority 2010, dated 2015).
≈ marks a conversion by molar mass, not a printed value.

test system: M. tuberculosis XDR-1 (XDR- strain); experiment: microbe, parasite or virus in culture; format: cell-based, Mycobacterium tuberculosis; conditions: Mycobacterium tuberculosis, 504 h

Point of comparison: `C=C/C(C)=C/[C@@]1(C)SC(=O)C(C)=C1O` [Thiolactomycin, reference compound], MIC 25 µg/mL (≈ 119 µM). Against it:
- NNC(=O)c1ccncc1 [Isoniazid, reference compound] — 50-fold lower, 0.5 µg/mL (≈ 3.65 µM)

test system: M. tuberculosis -617 (MDR- strain); experiment: microbe, parasite or virus in culture; format: cell-based, Mycobacterium tuberculosis; conditions: Mycobacterium tuberculosis, 504 h

Point of comparison: `C=C/C(C)=C/[C@@]1(C)SC(=O)C(C)=C1O` [Thiolactomycin, reference compound], MIC 25 µg/mL (≈ 119 µM). Against it:
- NNC(=O)c1ccncc1 [Isoniazid, reference compound] — 5.1-fold higher, 128 µg/mL (≈ 933 µM)

test system: M. tuberculosis H37Rv; experiment: In vivo efficacy in murine model of M. tuberculosis H37Rv infection; parameters: species or system mice (BALB/c); conditions: BALB/c mice, intranasal infection, treatment from 1 week post infection, PO once daily for 4 weeks; RIF 20 mg/kg, 3f 25 mg/kg
Description: The Compound 3f used in this study ([…]). The compound 3f was tested in vivo at 25 mg/kg. Rifampicin at 20 mg/kg was also tested as positive control. For in vivo studies compound and rifampicin was dissolved in pure DMSO and formulation was prepared 50% PEG in water for oral administration. The final concentration of DMSO was less than 0.1% v/v.
The institutional animal Ethics committee of the Indian Institute of Integrative Medicine (CSIR, Jammu) approved all experimental protocols with animals and the use of animals. The animals were bred and maintained under standard husbandry conditions; viz. humidity, temperature (25±2° C.). 8-week-old female (BALB/c) mice 20-22 gm by weight were used for the efficacy studies. Animals were allowed 1 week of acclimation before intake into experimental studies. Feed and water were given ad libitum.
Infection of M. tuberculosis:
M. tuberculosis (H37Rv) for infection was grown by the culturing of bacteria from Lowenstein-Jensen slant in Middlebrooke 7H9 medium on a rotary shaker for 10 days at 37° C. […] The mice were sacrificed after week post infection (early control), and bacterial numbers in the lungs were determined by macerating the organs (lung) and plating serial tenfold serial dilution on Middlebrook 7H10 agar plates in triplicates. […]
Eight infected mice were sacrificed from the control group 7 day after the infection (before the initiation of treatment) to obtain the initial CFU load of M. tuberculosis H37Rv at the initiation of treatment. […] Viable bacteria were quantitated by plating 10-fold serial dilutions in duplicates on Middlebrook, 7H10 agar supplemented with 10% OADC (oleic acid albumin dextrose catalase, Becton Dickinson, Sparks, Md.) and incubated at 37° C. in 5% CO2 for 4-6 weeks. CFU per organ sample was counted and expressed as log10 CFU per organ. CFU during in-vivo studies were determined on Middlebrook 7H10 plates supplement with 10% OADC containing Vancomycin 10 μg/ml, Amphoterecin 10 μg/ml, Nalidaxic acid 25 μg/ml. […]

In the case of `CO[C@H]1/C=C/O[C@@]2(C)Oc3c(C)c(O)c4c(O)c(c(/C=N/N5CCN(C)CC5)c(O)c4c3C2=O)NC(=O)/C(C)=C\C=C\[C@H](C)[C@H](O)[C@@H](C)[C@@H](O)[C@@H](C)[C@H](OC(C)=O)[C@@H]1C` [RIF, Rifampicin, reference compound], the “Log10 CFU/left Lung (mean ± SD)” value is reported as 2.0 ± 0.41 Log10 CFU/left Lung.

test system: M. tuberculosis H37Rv (ATCC 27294); experiment: MIC determination by broth dilution against M. tuberculosis H37Rv; format: cell-based, Mycobacterium tuberculosis; conditions: M. tuberculosis H37Rv, broth dilution, 3 weeks at 37° C., read visually (no turbidity)

Point of comparison: `CC1=C(OCCCCCCCCN2CCN(c3ccnc4cc(C(F)(F)F)ccc34)CC2)C(C)SC1=O` (stereo not shown) [Compound 3c, 3,5-dimethyl-4-[(8-4-[7-(trifluoromethyl)-4-quinolyl]piperazinooctyl)oxy]-5H-thiophen-2-one], MIC 16 µg/mL (≈ 29.9 µM). Against it:
- CC1=C(OCCCCCCCCCCN2CCN(c3ccnc4cc(C(F)(F)F)ccc34)CC2)C(C)SC1=O (stereo not shown) [Compound 3e, 3,5-dimethyl-4-[(10-4-[7-(trifluoromethyl)-4-quinolyl]piperazinodecyl)oxy]-5H-thiophen-2-one] — the same, 16 µg/mL (≈ 28.4 µM)
- CC1=C(OCCCCCCN2CCCN(c3ccnc4cc(C(F)(F)F)ccc34)CC2)C(C)SC1=O (stereo not shown) [Compound 5b, 3,5-dimethyl-4-[(6-4-[7-(trifluoromethyl)-4-quinolyl]-1,4-diazepan-1-ylhexyl)oxy]-5H-thiophen-2-one] — the same, 16 µg/mL (≈ 30.7 µM)
- CC1=C(OCCCCCCCCN2CCCN(c3ccnc4cc(C(F)(F)F)ccc34)CC2)C(C)SC1=O (stereo not shown) [Compound 5c, 3,5-dimethyl-4-[(8-4-[7-(trifluoromethyl)-4-quinolyl]-1,4-diazepan-1-yloctyl)oxy]-5H-thiophen-2-one] — the same, 16 µg/mL (≈ 29.1 µM)
- CC1=C(OCCCCCCCCCCN2CCCN(c3ccnc4cc(C(F)(F)F)ccc34)CC2)C(C)SC1=O (stereo not shown) [Compound 5e, 3,5-dimethyl-4-[(10-4-[7-(trifluoromethyl)-4-quinolyl]-1,4-diazepan-1-yldecyl)oxy]-5H-thiophen-2-one] — 2-fold lower, 8 µg/mL (≈ 13.8 µM)
- CC1=C(OCCCCCCCCCN2CCN(c3ccnc4cc(C(F)(F)F)ccc34)CC2)C(C)SC1=O (stereo not shown) [Compound 3d, 3,5-dimethyl-4-[(9-4-[7-(trifluoromethyl)-4-quinolyl]piperazinononyl)oxy]-5H-thiophen-2-one] — the same, 16 µg/mL (≈ 29.1 µM)
- CC1=C(OCCCCCCN2CCN(c3ccnc4cc(C(F)(F)F)ccc34)CC2)C(C)SC1=O (stereo not shown) [Compound 3b, 3,5-dimethyl-4-[(6-4-[7-(trifluoromethyl)-4-quinolyl]piperazinohexyl)oxy]-5H-thiophen-2-one] — the same, 16 µg/mL (≈ 31.5 µM)
- CC1=C(OCCCCCN2CCCN(c3ccnc4cc(C(F)(F)F)ccc34)CC2)C(C)SC1=O (stereo not shown) [Compound 5a, 3,5-dimethyl-4-[(5-4-[7-(trifluoromethyl)-4-quinolyl]-1,4-diazepan-1-ylpentyl)oxy]-5H-thiophen-2-one] — the same, 16 µg/mL (≈ 31.5 µM)
- CC1=C(OCCCCCCCCCN2CCCN(c3ccnc4cc(C(F)(F)F)ccc34)CC2)C(C)SC1=O (stereo not shown) [Compound 5d, 3,5-dimethyl-4-[(9-4-[7-(trifluoromethyl)-4-quinolyl]-1,4-diazepan-1-ylnonyl)oxy]-5H-thiophen-2-one] — the same, 16 µg/mL (≈ 28.4 µM)
- CC1=C(OCCCCCCCCCCCCN2CCCN(c3ccnc4cc(C(F)(F)F)ccc34)CC2)C(C)SC1=O (stereo not shown) [Compound 5f, 3,5-dimethyl-4-[(12-4-[7-(trifluoromethyl)-4-quinolyl]-1,4-diazepan-1-yldodecyl)oxy]-5H-thiophen-2-one] — 2-fold lower, 8 µg/mL (≈ 13.2 µM)
- CC1=C(OCCCCCN2CCN(c3ccnc4cc(C(F)(F)F)ccc34)CC2)C(C)SC1=O (stereo not shown) [Compound 3a, 3,5-dimethyl-4-[(5-4-[7-(trifluoromethyl)-4-quinolyl]piperazinopentyl)oxy]-5H-thiophen-2-one] — the same, 16 µg/mL (≈ 32.4 µM)
- C=C/C(C)=C/[C@@]1(C)SC(=O)C(C)=C1O [Thiolactomycin, reference compound] — 1.6-fold higher, 25 µg/mL (≈ 119 µM)

same assay, conditions: Mycobacterium tuberculosis, 504 h; M. tuberculosis H37Rv, broth dilution, 3 weeks at 37° C., read visually (no turbidity); read-out: MIC

Point of comparison: `NNC(=O)c1ccncc1` [Isoniazid, reference compound], MIC 0.5 µg/mL (≈ 3.65 µM). Against it:
- CC1=C(OCCCCCCN2CCN(c3ccnc4cc(Cl)ccc34)CC2)C(C)SC1=O (stereo not shown) [Compound 4b, 3,5-dimethyl-4-(6-[4-(7-chloro-4-quinolyl)piperazino]hexyloxy)-5H-thiophen-2-one] — 32-fold higher, 16 µg/mL (≈ 33.8 µM)
- CC1=C(OCCCCCCCCCCCCN2CCN(c3ccnc4cc(Cl)ccc34)CC2)C(C)SC1=O (stereo not shown) [Compound 4f, 3,5-dimethyl-4-(12-[4-(7-chloro-4-quinolyl)piperazino]dodecyloxy)-5H-thiophen-2-one] — 16-fold higher, 8 µg/mL (≈ 14.3 µM)
- CC1=C(OCCCCCN2CCN(c3ccnc4cc(Cl)ccc34)CC2)C(C)SC1=O (stereo not shown) [Compound 4a, 3,5-dimethyl-4-(5-[4-(7-chloro-4-quinolyl)piperazino]pentyloxy)-5H-thiophen-2-one] — 32-fold higher, 16 µg/mL (≈ 34.8 µM)
- CC1=C(OCCCCCCCCN2CCN(c3ccnc4cc(Cl)ccc34)CC2)C(C)SC1=O (stereo not shown) [Compound 4c, 3,5-dimethyl-4-(8-[4-(7-chloro-4-quinolyl)piperazino]octyloxy)-5H-thiophen-2-one] — 16-fold higher, 8 µg/mL (≈ 15.9 µM)
- CC1=C(OCCCCCN2CCCN(c3ccnc4cc(Cl)ccc34)CC2)C(C)SC1=O (stereo not shown) [Compound 6a, 3,5-dimethyl-4-(5-[4-(7-chloro-4-quinolyl)-1,4-diazepan-1-yl]pentyloxy)-5H-thiophen-2-one] — 32-fold higher, 16 µg/mL (≈ 33.8 µM)
- CC1=C(OCCCCCCCCCN2CCN(c3ccnc4cc(Cl)ccc34)CC2)C(C)SC1=O (stereo not shown) [Compound 4d, 3,5-dimethyl-4-(9-[4-(7-chloro-4-quinolyl)piperazino]nonyloxy)-5H-thiophen-2-one] — 16-fold higher, 8 µg/mL (≈ 15.5 µM)
- CC1=C(OCCCCCCCCN2CCCN(c3ccnc4cc(Cl)ccc34)CC2)C(C)SC1=O (stereo not shown) [Compound 6c, 3,5-dimethyl-4-(8-[4-(7-chloro-4-quinolyl)-1,4-diazepan-1-yl]octyloxy)-5H-thiophen-2-one] — 32-fold higher, 16 µg/mL (≈ 31 µM)
- CC1=C(OCCCCCCCCCCN2CCCN(c3ccnc4cc(Cl)ccc34)CC2)C(C)SC1=O (stereo not shown) [Compound 6e, 3,5-dimethyl-4-(10-[4-(7-chloro-4-quinolyl)-1,4-diazepan-1-yl]decyloxy)-5H-thiophen-2-one] — 32-fold higher, 16 µg/mL (≈ 29.4 µM)
- CC1=C(OCCCCCCCCCN2CCCN(c3ccnc4cc(Cl)ccc34)CC2)C(C)SC1=O (stereo not shown) [Compound 6d, 3,5-dimethyl-4-(9-[4-(7-chloro-4-quinolyl)-1,4-diazepan-1-yl]nonyloxy)-5H-thiophen-2-one] — 16-fold higher, 8 µg/mL (≈ 15.1 µM)
- CC1=C(OCCCCCCCCCCN2CCN(c3ccnc4cc(Cl)ccc34)CC2)C(C)SC1=O (stereo not shown) [Compound 4e, 3,5-dimethyl-4-(10-[4-(7-chloro-4-quinolyl)piperazino]decyloxy)-5H-thiophen-2-one] — 16-fold higher, 8 µg/mL (≈ 15.1 µM)
- CC1=C(OCCCCCCCCCCCCN2CCCN(c3ccnc4cc(Cl)ccc34)CC2)C(C)SC1=O (stereo not shown) [Compound 6f, 3,5-dimethyl-4-(12-[4-(7-chloro-4-quinolyl)-1,4-diazepan-1-yl]dodecyloxy)-5H-thiophen-2-one] — 8-fold higher, 4 µg/mL (≈ 6.99 µM)
- CC1=C(OCCCCCCN2CCCN(c3ccnc4cc(Cl)ccc34)CC2)C(C)SC1=O (stereo not shown) [Compound 6b, 3,5-dimethyl-4-(6-[4-(7-chloro-4-quinolyl)-1,4-diazepan-1-yl]hexyloxy)-5H-thiophen-2-one] — 16-fold higher, 8 µg/mL (≈ 16.4 µM)
- C=C/C(C)=C/[C@@]1(C)SC(=O)C(C)=C1O [Thiolactomycin, reference compound] — 50-fold higher, 25 µg/mL (≈ 119 µM)
